Reference: patent US20210361774A1, “DEGRADERS OF WILD-TYPE AND MUTANT FORMS OF LRRK2” (DANA-FARBER CANCER INSTITUTE, INC., priority 2018, published 2021)

Experiments:
LRRK2 wt = biological target: T1, LRRK2 wt (Homo sapiens, UniProt Q5S007); assay: IC50 experiments, Invitrogen Adapta assay, LRRK2 wt; format: biochemical
T1 construct: purchased Invitrogen
Experimental: (§1) IC50 experiments were performed using Invitrogen™'s Adapta™ assay.

LRRK2 G2019S = biological target: T2, LRRK2 G2019S (Homo sapiens, UniProt Q5S007, G2019S); assay: IC50 experiments, Invitrogen Adapta assay, LRRK2 G2019S; format: biochemical
T2 construct: purchased Invitrogen
Experimental: as §1

LRRK2 = assay: Cellular degradation of LRRK2, Western blot in MEFs; format: cell-based, Mouse; settings: for degradation of LRRK2 (total level): Western blot, time course, 0 nM-1000 nM; for level of LRRK2 (degradation): after 48 hours (FIG. 18)
Experimental: (§2) Cell lines used: Mouse embryonic fibroblast (MEF) WT, LRRK2 homozygous knock-ins in MEFs [R1441C; VPS35N(D620N); G2019S].
(§3) Tested concentration of LRRK2 degraders: 0 nM, 10 nM, 30 nM, 100 nM, 300 nM, 1000 nM. Additional concentrations tested for inventive compound 3: 2 uM, 5 uM and 10 uM.
(§4) Complete growth medium: DMEM supplemented with: 10% Fetal Bovine Serum; 1% pen/strep; 1% L-Glutamine; 1% MEM Non-essential Amino Acid Solution; 1% sodium pyruvate.
(§5) Commercial and in-house purified antibodies: • (a) Mouse anti-LRRK2/Dardarin antibody from Antibodies, Inc. (Cat #75-253). • (b) Rabbit monoclonal antibodies for total LRRK2 (UDD3) and pS935-LRRK2 (UDD2) were purified at the University of Dundee (as described in Dzamko et al., PLoS One 7(6): e39132 (2012). • (c) Loading controls: anti-α-tubulin (Cell Signaling Technology #5174); anti-GAPDH (Santa Cruz Biotechnology Cat. #sc-32233) • (d) (p)Rab10 antibodies: rabbit anti-RAB10 (phospho T73) antibody [MJF-R21] (ab230261); mouse MJFF-total Rab10 monoclonal antibody were generated by nanoTools (www.nanotools.de); rabbit Rab10 total was from Cell Signaling Technology (Rab10 (D36C4) XP® Rabbit mAb #8127)
(§6) Treatment: WT MEF, R1441C, VPS35N and G2019S mutants' cells were plated at equal density into 6-well plates in a final volume of 3 mL of complete growth medium/well. Degraders were reconstituted in DMSO and used at 1:1000 in cells i.e. 3 μl/3 ml. Treatment began when cells were >60% confluent, starting from a 48-hour time point, followed by a 24-hour time point, a 6-hour time point and finally a 1-hour time point.
(§7) Cell lysis: Media were aspirated, plates were placed on ice and cells were washed with Dulbecco's phosphate-buffered saline (DPBS). Fifty microliters of an ice-cold lysis buffer containing 50 mM Tris-HCl, pH 7.5, 1% (v/v) Triton X-100, 1 mM ethylene glycol-bis(μ-aminoethyl ether)-N,N,N′,N′-tetraacetic acid (EGTA), 1 mM sodium orthovanadate, 50 mM NaF, 0.1% (v/v) 2-mercaptoethanol, 10 mM 2-glycerophosphate, 5 mM sodium pyrophosphate, 0.1 μg/ml microcystin-LR (Enzo Life Sciences), 270 mM sucrose and complete EDTA-free protease inhibitor cocktail (Sigma-Aldrich Cat #11836170001) was added per well. Lysates were centrifuged at 20,817 g (14,000 rpm) for 15 min at 4° C. and supernatants were used to determine protein concentration using Bradford assay (Pierce™ Coomassie (Bradford) Protein Assay Kit, Thermo Scientific™ Cat #23200) and for Western blot analysis.
(§8) Western blot analysis: Cell lysates were mixed with 4× SDS-PAGE sample buffer [50 mM Tris-HCl, pH 6.8, 2% (w/v) SDS, 10% (v/v) glycerol, 0.02% (w/v) Bromophenol Blue and 1% (v/v) 2-mercaptoethanol] to a final total protein concentration of 1 μg/μl and heated at 95° C. for 5 minutes. Twenty micrograms of samples were loaded onto NuPAGE™ 4-12% Bis-Tris gradient gels (Life Technologies) along with 3 μl of BIO-RAD protein marker (Precision Plus Protein™ All Blue Prestained Protein Standards #1610373 kDa), gels were run in duplicates at 110V for 2 hours and 30 minutes with the NuPAGE™ MOPS SDS running buffer (Life Technologies, Cat #NP0001-02). After electrophoresis, the separated proteins were transferred onto the nitrocellulose membrane (GE Healthcare, Amersham Protran 0.45 μm NC) at 90 V for 90 minutes. Transferred membranes were briefly stained with Ponceau S stain and divided into 3 strips, as described earlier in Fan et al., Biochem. J. 475:23-44 (2018). Briefly, upper strip was cut from the top of the membrane to 75 kDa, middle strip cut was between 75 kDa—30 kDa and bottom strip cut was from 30 kDa—to the bottom of the membrane. Membrane strips were blocked at room temperature with 5% (w/v) dried skimmed milk dissolved in TBS-T [20 mM Tris-HCl, pH 7.5, 150 mM NaCl and 0.1% (v/v) Tween® 20] for 1 hour, washed four times with ten minutes intervals in TBS-T and incubated with primary antibodies diluted in 5% BSA (bovine serum albumin) in TBS-T overnight at 4° C. […]

LRRK2 pS935 = assay: Inhibition of phosphorylation of S935, Western blot in MEFs; format: cell-based, Mouse; settings: for inhibition of phosphorylation of S935: Western blot, time course, 0 nM-1000 nM
Experimental: as §2, §3, §4, §5, §6, §7, §8

Rab10 (phospho T73) = assay: Inhibition of phosphorylation of Rab10, Western blot in MEFs; format: cell-based, Mouse; settings: for inhibition of phosphorylation of Rab10: Western blot, time course, 0 nM-1000 nM
Experimental: as §2, §3, §4, §5, §6, §7, §8

[1] = biological target: T3, LRRK2 R1441C homozygous knock-in MEFs (Mus musculus, UniProt Q5S006, R1441C); assay: Cellular degradation of LRRK2 in R1441C homozygous cells, Western blot; format: cell-based; settings: R1441C homozygous cells (FIG. 3B), time course, 0 nM-1000 nM
T3 construct: endogenous in cells; host or cells: LRRK2 R1441C homozygous knock-in MEFs
Experimental: as §2, §3, §4, §5
Treatment: WT MEF, R1441C, VPS35N and G2019S mutants' cells were plated at equal density into 6-well plates in a final volume of 3 mL of complete growth medium/well. Degraders were reconstituted in DMSO and used at 1:1000 in cells i.e. 3 μl/3 ml. […]

T2 sequence (Q5S007 whole entry G2019S): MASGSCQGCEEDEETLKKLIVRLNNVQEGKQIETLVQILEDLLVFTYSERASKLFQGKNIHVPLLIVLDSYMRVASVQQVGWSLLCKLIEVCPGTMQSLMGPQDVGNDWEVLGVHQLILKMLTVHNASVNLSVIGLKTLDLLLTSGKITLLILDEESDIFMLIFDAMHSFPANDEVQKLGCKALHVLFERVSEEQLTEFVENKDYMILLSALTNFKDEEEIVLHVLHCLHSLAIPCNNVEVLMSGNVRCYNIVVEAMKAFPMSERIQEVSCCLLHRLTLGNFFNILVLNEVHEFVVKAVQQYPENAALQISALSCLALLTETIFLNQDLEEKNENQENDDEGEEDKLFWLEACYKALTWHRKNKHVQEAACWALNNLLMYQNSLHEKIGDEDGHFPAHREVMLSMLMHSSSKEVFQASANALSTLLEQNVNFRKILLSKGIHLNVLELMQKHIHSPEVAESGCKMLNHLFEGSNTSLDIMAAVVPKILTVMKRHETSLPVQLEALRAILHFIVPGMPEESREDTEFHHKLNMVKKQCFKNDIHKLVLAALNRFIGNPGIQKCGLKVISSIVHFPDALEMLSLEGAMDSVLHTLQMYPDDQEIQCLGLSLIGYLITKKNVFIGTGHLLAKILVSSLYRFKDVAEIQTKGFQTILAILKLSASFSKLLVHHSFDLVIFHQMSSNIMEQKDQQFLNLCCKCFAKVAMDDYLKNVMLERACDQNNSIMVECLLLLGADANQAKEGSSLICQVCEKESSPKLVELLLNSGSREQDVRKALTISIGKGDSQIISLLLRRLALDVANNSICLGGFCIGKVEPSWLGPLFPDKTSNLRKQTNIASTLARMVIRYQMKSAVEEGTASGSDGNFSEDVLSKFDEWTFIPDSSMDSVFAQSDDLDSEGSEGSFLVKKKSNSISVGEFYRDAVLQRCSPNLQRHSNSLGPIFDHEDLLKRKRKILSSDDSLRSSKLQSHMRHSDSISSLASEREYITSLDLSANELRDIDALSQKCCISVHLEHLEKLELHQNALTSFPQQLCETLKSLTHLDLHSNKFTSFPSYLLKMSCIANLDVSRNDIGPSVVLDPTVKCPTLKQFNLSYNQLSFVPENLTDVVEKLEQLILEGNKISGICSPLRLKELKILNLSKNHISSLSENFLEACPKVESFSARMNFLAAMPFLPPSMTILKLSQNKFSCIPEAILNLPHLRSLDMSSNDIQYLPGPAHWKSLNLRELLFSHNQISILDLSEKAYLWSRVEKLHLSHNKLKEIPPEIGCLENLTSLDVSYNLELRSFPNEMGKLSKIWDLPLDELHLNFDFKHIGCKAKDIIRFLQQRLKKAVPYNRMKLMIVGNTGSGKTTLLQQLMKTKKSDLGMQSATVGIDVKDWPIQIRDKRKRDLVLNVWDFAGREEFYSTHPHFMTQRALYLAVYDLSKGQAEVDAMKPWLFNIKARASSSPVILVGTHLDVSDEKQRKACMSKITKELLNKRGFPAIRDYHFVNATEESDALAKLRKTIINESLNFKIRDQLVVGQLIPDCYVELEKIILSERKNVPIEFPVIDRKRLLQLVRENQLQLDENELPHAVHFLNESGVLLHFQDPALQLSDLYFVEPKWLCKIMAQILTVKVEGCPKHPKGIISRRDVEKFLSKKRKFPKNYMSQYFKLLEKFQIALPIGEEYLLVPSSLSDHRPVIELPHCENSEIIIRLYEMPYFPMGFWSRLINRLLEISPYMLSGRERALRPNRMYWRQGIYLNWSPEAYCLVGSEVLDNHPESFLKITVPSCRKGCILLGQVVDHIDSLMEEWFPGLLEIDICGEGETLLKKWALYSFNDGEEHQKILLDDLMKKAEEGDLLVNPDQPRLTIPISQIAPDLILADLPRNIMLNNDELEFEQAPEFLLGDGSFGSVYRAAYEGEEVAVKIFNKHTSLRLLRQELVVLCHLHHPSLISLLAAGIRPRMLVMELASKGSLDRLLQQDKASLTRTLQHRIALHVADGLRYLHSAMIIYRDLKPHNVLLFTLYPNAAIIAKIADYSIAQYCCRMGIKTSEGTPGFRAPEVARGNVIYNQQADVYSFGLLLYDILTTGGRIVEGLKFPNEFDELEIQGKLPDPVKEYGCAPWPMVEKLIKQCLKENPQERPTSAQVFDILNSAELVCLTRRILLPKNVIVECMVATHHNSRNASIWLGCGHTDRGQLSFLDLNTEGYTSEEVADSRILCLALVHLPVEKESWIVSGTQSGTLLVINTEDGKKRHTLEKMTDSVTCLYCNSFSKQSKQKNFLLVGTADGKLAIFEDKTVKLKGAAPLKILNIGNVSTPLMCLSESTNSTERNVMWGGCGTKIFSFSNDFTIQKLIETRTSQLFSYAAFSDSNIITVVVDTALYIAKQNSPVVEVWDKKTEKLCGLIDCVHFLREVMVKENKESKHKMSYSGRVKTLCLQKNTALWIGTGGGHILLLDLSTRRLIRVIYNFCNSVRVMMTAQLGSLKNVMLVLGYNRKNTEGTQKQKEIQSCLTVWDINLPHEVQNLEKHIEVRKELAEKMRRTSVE
T1 sequence (Q5S007 whole entry): as the sequence (Q5S007 whole entry G2019S) above, with S2019G counted along it
T3 sequence (Q5S006 whole entry R1441C): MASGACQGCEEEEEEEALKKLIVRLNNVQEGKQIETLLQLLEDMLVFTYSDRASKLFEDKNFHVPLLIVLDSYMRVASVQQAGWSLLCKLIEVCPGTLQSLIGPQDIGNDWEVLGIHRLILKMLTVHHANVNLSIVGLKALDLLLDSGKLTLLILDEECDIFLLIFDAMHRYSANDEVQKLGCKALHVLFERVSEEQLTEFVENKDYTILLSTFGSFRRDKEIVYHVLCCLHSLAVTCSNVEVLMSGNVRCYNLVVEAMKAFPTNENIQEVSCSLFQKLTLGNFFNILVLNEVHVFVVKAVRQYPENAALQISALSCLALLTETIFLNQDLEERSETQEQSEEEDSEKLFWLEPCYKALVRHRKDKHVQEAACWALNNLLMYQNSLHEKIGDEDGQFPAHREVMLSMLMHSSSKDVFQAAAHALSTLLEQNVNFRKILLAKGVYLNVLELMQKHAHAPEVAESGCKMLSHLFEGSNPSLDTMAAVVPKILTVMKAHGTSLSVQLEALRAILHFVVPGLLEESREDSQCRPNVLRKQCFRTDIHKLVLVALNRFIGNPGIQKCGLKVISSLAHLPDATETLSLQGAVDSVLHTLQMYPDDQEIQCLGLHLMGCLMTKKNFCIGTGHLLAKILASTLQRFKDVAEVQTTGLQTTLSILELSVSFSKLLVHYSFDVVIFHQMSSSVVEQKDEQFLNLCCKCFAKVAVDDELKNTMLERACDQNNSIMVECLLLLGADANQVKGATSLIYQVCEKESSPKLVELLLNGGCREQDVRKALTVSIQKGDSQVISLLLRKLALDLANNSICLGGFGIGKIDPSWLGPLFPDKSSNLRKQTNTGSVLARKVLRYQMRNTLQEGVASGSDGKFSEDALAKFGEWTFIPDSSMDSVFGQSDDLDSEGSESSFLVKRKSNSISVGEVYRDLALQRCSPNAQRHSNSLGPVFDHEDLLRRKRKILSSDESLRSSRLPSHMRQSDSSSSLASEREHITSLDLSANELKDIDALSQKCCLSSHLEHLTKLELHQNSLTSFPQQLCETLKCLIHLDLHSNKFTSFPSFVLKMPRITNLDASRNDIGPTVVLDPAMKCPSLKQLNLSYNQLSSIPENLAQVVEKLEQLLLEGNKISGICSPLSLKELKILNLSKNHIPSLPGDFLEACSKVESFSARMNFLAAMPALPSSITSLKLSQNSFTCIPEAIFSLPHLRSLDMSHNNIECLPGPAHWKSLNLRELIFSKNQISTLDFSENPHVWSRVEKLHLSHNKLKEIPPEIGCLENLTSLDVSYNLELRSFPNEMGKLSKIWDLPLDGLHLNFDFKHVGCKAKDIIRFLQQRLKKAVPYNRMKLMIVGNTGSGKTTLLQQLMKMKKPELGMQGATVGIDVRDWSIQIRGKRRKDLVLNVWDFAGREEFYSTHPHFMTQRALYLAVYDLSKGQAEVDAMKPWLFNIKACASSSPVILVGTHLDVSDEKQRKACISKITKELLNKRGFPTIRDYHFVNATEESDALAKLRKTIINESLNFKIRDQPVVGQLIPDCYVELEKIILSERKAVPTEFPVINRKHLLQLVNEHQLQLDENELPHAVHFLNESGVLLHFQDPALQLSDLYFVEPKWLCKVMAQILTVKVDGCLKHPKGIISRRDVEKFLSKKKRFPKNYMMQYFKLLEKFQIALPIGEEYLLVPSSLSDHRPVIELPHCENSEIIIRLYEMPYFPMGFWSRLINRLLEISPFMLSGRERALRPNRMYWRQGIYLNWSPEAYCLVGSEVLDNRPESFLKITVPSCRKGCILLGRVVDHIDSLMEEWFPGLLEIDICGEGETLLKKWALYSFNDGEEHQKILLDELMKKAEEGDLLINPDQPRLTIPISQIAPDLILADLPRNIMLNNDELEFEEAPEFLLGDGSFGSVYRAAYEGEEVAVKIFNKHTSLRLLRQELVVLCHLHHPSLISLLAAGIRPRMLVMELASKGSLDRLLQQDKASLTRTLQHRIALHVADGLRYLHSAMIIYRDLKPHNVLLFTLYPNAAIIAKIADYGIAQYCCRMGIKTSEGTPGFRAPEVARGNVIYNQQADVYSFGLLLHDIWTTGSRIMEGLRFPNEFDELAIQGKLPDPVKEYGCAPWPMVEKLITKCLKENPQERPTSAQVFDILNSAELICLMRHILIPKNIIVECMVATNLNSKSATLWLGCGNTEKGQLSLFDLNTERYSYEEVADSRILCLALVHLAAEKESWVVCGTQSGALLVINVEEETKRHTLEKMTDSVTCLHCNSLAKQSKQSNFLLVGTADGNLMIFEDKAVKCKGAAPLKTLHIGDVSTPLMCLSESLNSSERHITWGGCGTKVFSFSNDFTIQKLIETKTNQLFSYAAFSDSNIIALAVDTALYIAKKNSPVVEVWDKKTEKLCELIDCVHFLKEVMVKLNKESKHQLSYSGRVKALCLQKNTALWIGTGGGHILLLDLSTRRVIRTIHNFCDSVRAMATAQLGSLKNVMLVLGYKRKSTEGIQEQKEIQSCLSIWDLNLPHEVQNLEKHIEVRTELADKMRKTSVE

SMILES	IC50 (LRRK2 wt) [nM]	IC50 (LRRK2 G2019S) [nM]	degradation of LRRK2 (C-terminus) [1]	degradation of LRRK2 (total level) (LRRK2)	inhibition of phosphorylation of S935 (LRRK2 pS935)	inhibition of phosphorylation of Rab10 (Rab10 (phospho T73))	level of LRRK2 (degradation) (LRRK2)	inhibition of pS935 (LRRK2 pS935; after 48 hours (FIG. 18))	inhibition of pRAB10 (Rab10 (phospho T73); after 48 hours (FIG. 18))
CNc1nc(Nc2ccc(C(=O)N3CCN(C(=O)CCOCCOCCOCCOCCNc4cccc5c4C(=O)N(C4CCC(=O)NC4=O)C5=O)CC3)cc2OC)ncc1C(F)(F)F (stereo not shown) [Compound 1]	4	2	–	did not degrade	inhibited	inhibited	–	–	–
CNc1nc(Nc2ccc(C(=O)N3CCN(C(=O)CCOCCOCCNc4cccc5c4C(=O)N(C4CCC(=O)NC4=O)C5=O)CC3)cc2OC)ncc1C(F)(F)F (stereo not shown) [Compound 2]	2	1	–	did not degrade	inhibited	inhibited	–	–	–
CNc1nc(Nc2ccc(C(=O)N3CCN(C(=O)CCCCCCCCOc4cccc5c4C(=O)N(C4CCC(=O)NC4=O)C5=O)CC3)cc2OC)ncc1C(F)(F)F (stereo not shown) [Compound 3, 2-(2,6-dioxopiperidin-3-yl)-4-((9-(4-(3-methoxy-4-((4-(methylamino)-5-(trifluoromethyl)pyrimidin-2-yl)amino)benzoyl)piperazin-1-yl)-9-oxononyl)oxy)isoindoline-1,3-dione]	2	1	observed	did not degrade	inhibited	inhibited	–	–	–
CNc1nc(Nc2ccc(C(=O)N3CCN(CCOCCOCCOCCNc4cccc5c4C(=O)N(C4CCC(=O)NC4=O)C5=O)CC3)cc2OC)ncc1C(F)(F)F (stereo not shown) [Compound 5]	–	–	–	did not degrade	inhibited	inhibited	–	–	–
Cc1ncsc1-c1ccc([C@@H](C)NC(=O)[C@H]2C[C@H](O)CN2C(=O)[C@H](NC(=O)CCOCCOCCOCCC(=O)N2CCN(c3cc(-c4n[nH]c5ccc(OC6(C)CC6)cc45)ncn3)CC2)C(C)(C)C)cc1 [Compound 14, (2R,4S)-1-((R)-2-(tert-butyl)-16-(4-(6-(5-(1-methylcyclopropoxy)-1H-indazol-3-yl)pyrimidin-4-yl)piperazin-1-yl)-4,16-dioxo-7,10,13-trioxa-3-azahexadecanoyl)-4-hydroxy-N—((R)-1-(4-(4-methylthiazol-5-yl)phenyl)ethyl)pyrrolidine-2-carboxamide]	–	–	–	No degradation	inhibited	inhibited	–	–	–
Cc1ncsc1-c1ccc([C@H](C)NC(=O)[C@@H]2C[C@@H](O)CN2C(=O)[C@@H](NC(=O)CCOCCOCCOCCOCCC(=O)N2CCN(c3cc(-c4n[nH]c5ccc(OC6(C)CC6)cc45)ncn3)CC2)C(C)(C)C)cc1 [Compound 15]	–	–	–	No degradation	inhibited	inhibited	–	–	–
CC1(Oc2ccc3[nH]nc(-c4cc(N5CCN(C(=O)CCOCCOCCNc6cccc7c6C(=O)N(C6CCCNC6=O)C7=O)CC5)ncn4)c3c2)CC1 (stereo not shown) [Compound 16]	–	–	–	–	–	–	did not reduce	potently inhibited	potently inhibited
CN1CCN(c2cc(-c3n[nH]c4ccc(OC5(C)CC5)cc34)ncn2)CC1 [MLi-2 analog, 5-(1-methylcyclopropyl)oxy-3-[6-(4-methylpiperazin-1-yl)pyrimidin-4-yl]-1H-indazole, reference compound]	–	–	–	did not decrease	inhibits	–	–	–	–

Second part, led by results:

IC50 (LRRK2 wt) [nM]	IC50 (LRRK2 G2019S) [nM]	degradation of LRRK2 (C-terminus) [1]	SMILES	degradation of LRRK2 (total level) (LRRK2)	inhibition of phosphorylation of S935 (LRRK2 pS935)	inhibition of phosphorylation of Rab10 (Rab10 (phospho T73))	level of LRRK2 (degradation) (LRRK2)	inhibition of pS935 (LRRK2 pS935; after 48 hours (FIG. 18))	inhibition of pRAB10 (Rab10 (phospho T73); after 48 hours (FIG. 18))
1.24	1.13	–	CC1(Oc2ccc3[nH]nc(-c4cc(N5CCN(C(=O)CCOCCOCCNc6cccc7c6C(=O)N(C6CCC(=O)NC6=O)C7=O)CC5)ncn4)c3c2)CC1 (stereo not shown) [Compound 8, 2-(2,6-dioxopiperidin-3-yl)-4-((2-(2-(3-(4-(6-(5-(1-methylcyclopropoxy)-1H-indazol-3-yl)pyrimidin-4-yl)piperazin-1-yl)-3-oxopropoxy)ethoxy)ethyl)amino)isoindoline-1,3-dione]	decreased	inhibited	–	degraded	–	–
1.46	0.98	–	CC1(Oc2ccc3[nH]nc(-c4cc(N5CCN(C(=O)CCOCCOCCOCCOCCNc6cccc7c6C(=O)N(C6CCC(=O)NC6=O)C7=O)CC5)ncn4)c3c2)CC1 (stereo not shown) [Compound 9]	decreased	inhibited	–	–	–	–
1.59	1.08	–	CC1(Oc2ccc3[nH]nc(-c4cc(N5CCN(C(=O)CCOCCNc6cccc7c6C(=O)N(C6CCC(=O)NC6=O)C7=O)CC5)ncn4)c3c2)CC1 (stereo not shown) [Compound 10, 2-(2,6-dioxopiperidin-3-yl)-4-((2-(3-(4-(6-(5-(1-methylcyclopropoxy)-1H-indazol-3-yl)pyrimidin-4-yl)piperazin-1-yl)-3-oxopropoxy)ethyl)amino)isoindoline-1,3-dione]	Less degradation	inhibited	–	–	–	–
2.5	1.47	–	CC1(Oc2ccc3[nH]nc(-c4cc(N5CCN(C(=O)CCOCCNc6cccc7c6C(=O)N(C6CCC(=O)NC6=O)C7)CC5)ncn4)c3c2)CC1 (stereo not shown) [Compound 11, 3-(7-((2-(3-(4-(6-(5-(1-methylcyclopropoxy)-1H-indazol-3-yl)pyrimidin-4-yl)piperazin-1-yl)-3-oxopropoxy)ethyl)amino)-1-oxoisoindolin-2-yl)piperidine-2,6-dione]	Some degradation	inhibits	–	–	–	–
2.58	2.24	–	CC1(Oc2ccc3[nH]nc(-c4cc(N5CCN(C(=O)CCOCCOCCNc6cccc7c6C(=O)N(C6CCC(=O)NC6=O)C7)CC5)ncn4)c3c2)CC1 (stereo not shown) [Compound 12, 3-(7-((2-(2-(3-(4-(6-(5-(1-methylcyclopropoxy)-1H-indazol-3-yl)pyrimidin-4-yl)piperazin-1-yl)-3-oxopropoxy)ethoxy)ethyl)amino)-1-oxoisoindolin-2-yl)piperidine-2,6-dione]	Minor degradation	inhibited	–	–	–	–
3.14	3.16	–	CC1(Oc2ccc3[nH]nc(-c4cc(N5CCN(C(=O)CCOCCOCCOCCOCCNc6cccc7c6C(=O)N(C6CCC(=O)NC6=O)C7)CC5)ncn4)c3c2)CC1 (stereo not shown) [Compound 13]	Some degradation	inhibited	–	–	–	–
